These results are taken from patent US8926603B2, “System and method for denaturing and fixing collagenous tissue” (Hansen Medical, Inc., priority 2004, dated 2015).

This test is described as follows: denaturation accompanied by genepin treatment, study at the University of Pennsylvania (FIG. 6). Particulars: versus denatured collagenous tissue without genepin treatment. An excerpt:
Referring to FIGS. 5A-C, a denatured collagenous tissue mass exposed to genepin (371) is depicted. […] The result is a partial recovery or recreation of the mechanical properties of collagenous tissue to the state that they were prior to denaturation. […] Referring to FIG. 6, this has been experimentally confirmed in a study at the University of Pennsylvania, as directed by the inventors of the subject invention.

`COC(=O)C1=CO[C@@H](O)[C@@H]2C(CO)=CC[C@H]12` [genepin]: the “susceptibility to creep deformation of denatured collagenous tissue” value is “less susceptible to creep deformation”.
